Patent US20110092488A1, “Quninoline Methanol Compounds for the Treatment and Prevention of Parasitic Infections” (priority 2005, published 2011)
Converted amounts (≈) assume the structure as drawn. “Also recorded” adds a separate entry of the source.

How the values were obtained:
[1] = test system: Plasmodium falciparum malaria; settings: P. falciparum malaria, South East Asia; WR030090: field trials; cited from earlier work
P. falciparum D6 [2] = experiment: Isobologram analysis azithromycin and WR074086, P. falciparum D6; assay type: cell-based, Plasmodium falciparum; settings: for FIC (IC50 in combination/IC50 alone): Line C FIG. 5: starting azithromycin 12500 ng/ml, WR074086 5 ng/ml
Protocol: (§1) The combined effects of azithromycin (as represented by compound 196 on the horizontal axes of FIG. 4 through 6) and WR074086 (as represented by compound 14885 on vertical axes of FIGS. 4 through 6) against three strains of P. falciparum were investigated using isobologram analysis. First, the IC50s of each compound were determined as described above.
(§2) Next, IC50s were determined with different fractional starting concentrations of each compound. For example in line C of FIG. 5, the starting concentration of azithromycin was 12500 ng/ml whereas the starting concentration of WR074086 was 5 ng/ml. Each of these starting concentrations is half of that used when each compound was tested alone. […] In the data tables, lines D-H represent other combinations of starting concentrations of each compound.
(§3) For each pair of starting concentrations for each drug, fractional inhibitory concentrations were determined using the following formula: FIC=IC50 in combination/IC50 alone.
The FICs for the eight tests are plotted as indicated in FIG. 4 through FIG. 6 for each of three P. falciparum strains. Graphs of this type are called isobolograms and additivity is represented by an overall FIC SUM of 1, as represented by the straight line joining the two axes. A potentiative effect is represented by a concave curve below the straight line, since IC50s in combination are lower than expected. Antagonism is represented by a convex curve above the straight line, since IC50s in combination are higher than expected.

P. falciparum D6 [3] = experiment: In vitro antimalarial activity against P. falciparum D6; assay type: cell-based, Plasmodium falciparum; settings: FIG. 5
Protocol: (§4) The in vitro activities of AAQMs against P. falciparum strains W2, D6, TM91C235 and TM90C2A were evaluated using the method of Desjardins et al. as modified by Milhous et al. W2 is chloroquine resistant and mefloquine sensitive, D6 is chloroquine sensitive but naturally less susceptible to mefloquine, TM91C235 is resistant to mefloquine, chloroquine and pyrimethamine as is TM90C2A, however this latter parasite is a two pfmdr1 copy strain. We routinely run mefloquine in this screen as a control to ensure assay validity.
as §1

[4] = test system: P. falciparum D6, W2 and TM91C235; experiment: Isobologram analysis azithromycin and WR074086, P. falciparum D6, W2 and TM91C235; assay type: cell-based, Plasmodium falciparum; settings: WR074086 combined with azithromycin; in many instances; FIGS. 4-6
Protocol: as §1, §2, §3
The FICs for the eight tests are plotted as indicated in FIG. 4 through FIG. 6 for each of three P. falciparum strains. Graphs of this type are called isobolograms and additivity is represented by an overall FIC SUM of 1, as represented by the straight line joining the two axes. A potentiative effect is represented by a concave curve below the straight line, since IC50s in combination are lower than expected. […]

[5] = test system: FVO strain of P. falciparum; experiment: Efficacy in P. falciparum-challenged Aotus monkeys; assay type: in vivo, Plasmodium falciparum in Aotus lemurinus lemurinus; settings: 10 mg/kg/day x7 oral; groups of two; Cure = parasite free 90 days; R = average day of recrudescence; Failure = rescued with mefloquine
Protocol: (§5) The P. berghei-mouse efficacy data were obtained from the WRAIR chemical information system (subcutaneous testing) or from recent tests conducted at AFRIMS, Thailand or at the University of Miami using a modified version of the Thompson test. Groups of five mice were inoculated through i.p. injection on day 0 (usually with 1×106 P. berghei-parasitized erythrocytes). The drugs in Table 1 were administered either subcutaneously or orally for three days (usually on days 3-5) at doses of 1.25-160 mg/kg in two to four fold increments. Cure was defined as survival until day 60 (subcutaneous dosing) or day 31 post-treatment (oral dosing). […] The minimum effective dose was the lowest dose level that cured at least one of five mice. The Aotus studies were performed according to Obaldia; Detection of Klebsiella pnuumoniae antibodies in Aotus l. lemurinus (Panamanian owl monkey) using an enzyme linked immunosorbent assay (ELIA) test; Lab Anim (25)133-141 (1991) and Obaldia et al., WR 238605, chloroquine, and their combinations as blood schizonticides against a chloroquine-resistant strain of Plasmodium vivax in Aotus monkeys; Am. J. Trop. Med. Hyg. (56)508-510 (1997), which are incorporated by reference, herein. Groups of two Aotus lemurinus 6 lemurinus of the karyotype VIII or IX (27) male and female monkeys with weights ranging from 742-970 g were inoculated with 5×10^6 parasites of either the FVO strain of P. falciparum or the AMRU1 strain of P. vivax. Both of these strains are chloroquine resistant. […] Monkeys were examined and thick Giemsa-stained blood smears were prepared and enumerated daily (17) to monitor the course of infection. […] In some instances, a high dose of the test drug was used to retreat monkeys instead of the mefloquine rescue. Monkeys are considered cured if they are parasite free 90 days post treatment. […] Plasma samples were taken from the monkeys in some studies for quantification of metabolites. Additional blood samples were taken as appropriate for complete blood counts and serum chemistry. Research was conducted in compliance with the Animal Welfare Act and other federal statutes and regulations relating to animals and experiments involving animals and adheres to principles stated in the Guide for the Care and Use of Laboratory Animals, NRC Publication, 1996 edition (34).

P. falciparum TM91C235 = experiment: In vitro antimalarial activity against P. falciparum TM91C235; assay type: cell-based, Plasmodium falciparum
Protocol: as §4

[6] = Aotus, 10 mg/kg/day oral x7
Protocol: as §5

Compound: C=C[C@H]1C[N@@]2CC[C@H]1C[C@H]2[C@H](O)c1ccnc2ccc(OC)cc12 [quinine]
- Cure rate [1]: 26-50%

Compound: CCN(CC)CCCC(C)Nc1ccnc2cc(Cl)ccc12 (stereo not shown) [chloroquine]
- Cure rate [1]: 11-20%

Compound: CC[C@H]1OC(=O)[C@H](C)[C@@H](O[C@H]2C[C@@](C)(OC)[C@@H](O)[C@H](C)O2)[C@H](C)[C@@H](O[C@@H]2O[C@H](C)C[C@H](N(C)C)[C@H]2O)[C@](C)(O)C[C@@H](C)CN(C)[C@H](C)[C@@H](O)[C@]1(C)O [azithromycin, reference compound]
- FIC (IC50 in combination/IC50 alone) (P. falciparum D6 [2]): 0.249
- IC50 (P. falciparum D6 [3]; Plasmodium falciparum, D6, read-out: IC50 against P. falciparum D6, compound alone): 7230 ng/mL (≈ 9.66 µM)

Compound: CCCCN(CCCC)CC(O)c1cc(-c2ccc(F)cc2)nc2c(Cl)cc(Cl)cc12 (stereo not shown) [WR074086]
- Minimum fractional inhibitory concentration (FIC) [4]: < 0.5
- FIC (IC50 in combination/IC50 alone) (P. falciparum D6 [2]): 0.399
- FIC sum (P. falciparum D6 [2]; azithromycin + WR074086, Line C FIG. 5): 0.648
- Outcome in Aotus [5]: cleared parasitemias, but recrudescence was subsequently observed; also recorded: Clear (R25)
- IC50 against P. falciparum D6, compound alone (P. falciparum D6 [3]): 1.8086 ng/mL (≈ 0.0039 µM)
- Activity against P. falciparum TM91C235 (IC50 in ng/ml) (P. falciparum TM91C235): 3.4 ng/mL
- TM91C235 IC90 (P. falciparum TM91C235; Table 2): 7.0 ng/mL
- Mean peak concentration [6]: 129 ng/mL
- Plasma conc on day 1 (ng/ml) 2 h ([6]; day 1, 2 h): 179 ng/mL
- Plasma conc on day 1 (ng/ml) 24 h ([6]; day 1, 24 h): 4.0 ng/mL
- Plasma conc. on day 7 (ng/ml) 2 h ([6]; day 7, 2 h): 78 ng/mL
- Plasma conc. on day 7 (ng/ml) 24 h ([6]; day 7, 24 h): 78 ng/mL
